According to patent US9683231B2, “RNAi-based method of drug screening and characterization” (Massachusetts Institute of Technology, priority 2010, dated 2017):
Read-outs that look alike come from different tables or passages of the source. Starred links: 1 amine or outer side, 2 acyl side, 3 side chain; linkers in the order of their positions; H or OH if unused. Positions of bridges follow the written chain, without caps; N, C: chain ends. Non-standard residues stand in square brackets, D forms with d. Residues, ends and D or L forms follow the SMILES beside them. Chains are numbered I, II in the order given. Actinocin(9to1) = Cc1c2oc3c(C)ccc(C(=O)[*:1])c3nc-2c(C(=O)[*:2])c(N)c1=O; NMeV = CN[C@H](C(=O)O)C(C)C; Sar = CNCC(=O)O

Columns and labels:
[1] = test system: Eμ-Mycp19^Arf−/− mouse lymphoma cells; assay: Drug treatment and FACS viability (propidium iodide) to determine LD80-90; type: cell-based
[2] = test system: lymphoma cells expressing shATM, shChk2 or shp53; assay: shATM-Chk2-p53 resistance signature; type: cell-based, mouse
Protocol: (3d) A comparison of the shTopoI and shTopoII response signatures for APG and NSC3852 with response signatures derived from established Topol (CPT and CPT11) and TopoII poisons (Dox, Mito and VP-16). […] In each case, one million cells were plated before treatment.
Eμ-Mycp19^Arf−/− cells were counted and seeded at 1 million cells per ml in 48-well plates and treated with various concentrations of drugs. To approximate therapeutic situations in which drug dose decreases over time, half of the volume from each experiment was removed and replenished with fresh medium every 24 h. Cells were analyzed by fluorescence-activated cell sorting (FACS), with propidium iodide as a viability marker. LD80-90 of drugs are defined as concentrations at which the lowest viability reading out of three FACS time points (24, 48 and 72 h) is between 10% and 20%. After drug dose was determined, Eμ-Mycp19^Arf−/− cells were infected with retroviruses encoding shRNAs targeting particular genes. Individual infected cell populations were counted and seeded at 1 million cells per ml in 48-well plates and treated with drugs using the aforementioned protocol. At 72 h, treated and untreated cells were analyzed by flow cytometry. GFP percentages of live (PI-negative) cells were recorded and used to calculate relative resistance index.
To compare the relative level of chemoresistance and sensitization conferred by each gene knockdown, the concept of RI (see definition above) was introduced, to more accurately analyze the GFP competition results. The value of RI is defined as X. The biological meaning of this factor X is that in a mixture of uninfected and infected (knockdown) cells, the infected (knockdown) cells will be X-fold as likely to survive drug treatment when compared to uninfected cells. By this definition of X, if one out of n uninfected cells survives a drug treatment, then X our of n infected cells should survive. If the total number of uninfected and infected cells are defined as T and the GFP percentage of untreated population are defined as G1, then the number of surviving, uninfected cells (un) can be defined as n−un=T×(1−G1)×1/n, and the number of surviving, infected cells (in) can be defined as n−in=Tx G1×X/n. […] From this equation, it can be derived that X=(G2−G1×G2)/(G1−G1×G2). This equation was used in the studies to compute RI values.

[3] = test system: Eμ-Mycp19^Arf−/− lymphoma cells expressing shRNAs targeting the Bcl2 family, p53 and its activating kinases; assay: 29-shRNA GFP competition assay, resistance index (RI), clustering and K-nearest-neighbors; type: cell-based, mouse
[4] = concentration at which 80-90% of uninfected lymphoma cells were killed; lowest viability of 24, 48 and 72 h between 10% and 20%
[5] = Mus musculus; concentration at which 80-90% of uninfected lymphoma cells were killed; lowest viability of 24, 48 and 72 h between 10% and 20%; read-out: Concentration used (LD80-90)
[6] = Mus musculus; read-out: Concentration used (LD80-90)
[7] = suppression of ATM, Chk2 and p53
[8] = read-out: Concentration used (LD80-90)

COc1cc2ncnc(Nc3cccc(Cl)c3)c2cc1OC [AG1478]
Concentration used (LD80-90) [1, 4]: 19 µM

Nc1nc2nc[nH]c2c(=S)[nH]1 [6-Thioguanine]
IC (80-90) [1, 5]: 0.054 µM

CCc1c2c(nc3ccc(OC(=O)N4CCC(N5CCCCC5)CC4)cc13)-c1cc3c(c(=O)n1C2)COC(=O)[C@]3(O)CC [Irinotecan]
IC (80-90) [1, 5]: 2.1 µM

Nc1nc(F)nc2c1ncn2[C@@H]1O[C@H](CO)[C@@H](O)[C@@H]1O [Fludarabine]
IC (80-90) [1, 6]: 3.8 µM

COc1c(C)cnc(Cn2cnc3c(Cl)nc(N)nc32)c1C [BIIB021]
IC (80-90) [1, 5]: 0.79 µM

COc1cc2ncnc(Nc3ccc(F)c(Cl)c3)c2cc1OCCCN1CCOCC1 [Gefitinib]
IC (80-90) [1, 5]: 12.5 µM

N.N.O=C([O-])C1(C(=O)[O-])CCC1.[Pt+2] [Carboplatin]
Concentration used (LD80-90) [1]: 16.4 µM

COc1ccc2c(c1OC)C(=O)O[C@@H]2[C@H]1c2c(cc3c(c2OC)OCO3)CCN1C [Noscapine]
IC (80-90) [1, 5]: 58.1 µM

CC[C@H](CO)Nc1nc(NCc2ccccc2)c2ncn(C(C)C)c2n1 [Roscovitine]
IC (80-90) [1, 6]: 26.7 µM

CC(=O)O[C@H]1C(=O)[C@@]2(C)[C@H]([C@H](OC(=O)c3ccccc3)[C@]3(O)C[C@H](OC(=O)[C@H](O)[C@@H](NC(=O)c4ccccc4)c4ccccc4)C(C)=C1C3(C)C)[C@]1(OC(C)=O)CO[C@@H]1C[C@@H]2O [Paclitaxel]
IC (80-90) [1, 5]: 0.008 µM

C[C@@]12C(=O)OC(=O)[C@]1(C)[C@H]1CC[C@@H]2O1 [Cantharidin]
IC (80-90) [1, 6]: 10.7 µM

Cn1nnc2c(C(N)=O)ncn2c1=O [Temozolomide]
IC (80-90) [1, 5]: 23.2 µM

O=c1[nH]cc(F)c(=O)[nH]1 [5-Fluorouracil]
IC (80-90) [1, 5]: 0.0305 µM

COc1cccc2c1C(=O)c1c(O)c3c(c(O)c1C2=O)C[C@@](O)(C(=O)CO)C[C@@H]3O[C@H]1C[C@H](N)[C@H](O)[C@H](C)O1 [Doxorubicin]
shATM-Chk2-p53 resistance signature [2]: significant resistance | IC (80-90) [1, 5]: 0.0162 µM

CO[C@H]1C[C@@H]2CC[C@@H](C)[C@@](O)(O2)C(=O)C(=O)N2CCCC[C@H]2C(=O)O[C@H]([C@H](C)C[C@@H]2CC[C@@H](O)[C@H](OC)C2)CC(=O)[C@H](C)/C=C(\C)[C@@H](O)[C@@H](OC)C(=O)[C@H](C)C[C@H](C)/C=C/C=C/C=C/1C [Rapamycin]
IC (80-90) [1, 5]: 15 µM

COc1cccc2c1C(=O)c1c(O)c3c(c(O)c1C2=O)C[C@@](O)(C(C)=O)C[C@@H]3O[C@H]1C[C@H](N)[C@H](O)[C@H](C)O1 [Daunorubicin]
IC (80-90) [1, 6]: 0.0225 µM

Nc1ccn([C@@H]2O[C@H](CO)[C@@H](O)C2(F)F)c(=O)n1 [Gemcitabine]
IC (80-90) [1, 5]: 0.1 µM

CCN(CC)CCCCNc1ncc2cc(-c3cc(OC)cc(OC)c3)c(NC(=O)NC(C)(C)C)nc2n1 [PD 173074]
IC (80-90) [1, 5]: 4.2 µM

O=c1ncccn1[C@@H]1O[C@H](CO)[C@@H](O)[C@H]1O [Zebularine]
IC (80-90) [1, 5]: 30 µM

C=CCNC1=C2C[C@@H](C)C[C@H](OC)[C@H](O)[C@@H](C)/C=C(\C)[C@H](OC(N)=O)[C@@H](OC)/C=C\C=C(/C)C(=O)NC(=CC1=O)C2=O [17 AAG]
Concentration used (LD80-90) [1, 4]: 2.6 µM

CN(N=O)C(=O)N[C@@H](C=O)[C@@H](O)[C@H](O)[C@H](O)CO [Streptozocin]
IC (80-90) [1, 5]: 83 µM

CC[C@]1(O)C[C@H]2CN(CCc3c([nH]c4ccccc34)[C@@](C(=O)OC)(c3cc4c(cc3OC)N(C=O)[C@H]3[C@@](O)(C(=O)OC)[C@H](OC(C)=O)[C@]5(CC)C=CCN6CC[C@]43[C@@H]65)C2)C1 [Vincristine]
IC (80-90) [1, 5]: 0.0015 µM

N[C@@H](Cc1ccc(N(CCCl)CCCl)cc1)C(=O)O [Melphalan]
IC (80-90) [1, 6]: 3.9 µM

CN1C(=O)[C@]23CC4=CC=C[C@H](O)[C@H]4N2C(=O)[C@@]1(CO)SS3 [Gliotoxin]
IC (80-90) [1, 6]: 0.3 µM

CS(=O)(=O)N1CCN(Cc2cc3nc(-c4cccc5[nH]ncc45)nc(N4CCOCC4)c3s2)CC1 [GDC 0941]
IC (80-90) [1, 5]: 5.4 µM

O=NN(CCCl)C(=O)NCCCl [Carmustine]
IC (80-90) [1, 6]: 26.7 µM

Nc1ncn([C@H]2C[C@H](O)[C@@H](CO)O2)c(=O)n1 [Decitabine]
log2RI ([3]; shRNA targeting Bim (Bim-dependence)): ≈ 2 | log2RI ([3]; shRNA targeting p53 (p53-independence)): ≈ 0 | IC (80-90) [1, 5]: 0.6 µM

S=P(N1CC1)(N1CC1)N1CC1 [ThioTEPA]
IC (80-90) ([1]; Mus musculus, read-out: Concentration used (LD80-90)): 2.1 µM

N.N.[Cl][Pt][Cl] [Cisplatin]
shATM-Chk2-p53 resistance signature [2, 7]: significant resistance | Concentration used (LD80-90) [1, 4]: 3.3 µM

CO[C@@]12[C@H](COC(N)=O)C3=C(C(=O)C(C)=C(N)C3=O)N1C[C@@H]1N[C@@H]12 [Mitomycin C]
IC (80-90) [1, 8]: 0.09 µM

C#Cc1cccc(Nc2ncnc3cc(OCCOC)c(OCCOC)cc23)c1 [Erlotinib]
IC (80-90) [1, 5]: 6.5 µM

Cc1c2oc3c(C)ccc(C(=O)N[C@@H]4C(=O)N[C@H](C(C)C)C(=O)N5CCC[C@H]5C(=O)N(C)CC(=O)N(C)[C@@H](C(C)C)C(=O)O[C@@H]4C)c3nc-2c(C(=O)N[C@@H]2C(=O)N[C@H](C(C)C)C(=O)N3CCC[C@H]3C(=O)N(C)CC(=O)N(C)[C@@H](C(C)C)C(=O)O[C@@H]2C)c(N)c1=O [Actinomycin D] (I: T[dV]P[Sar][NMeV] / II: T[dV]P[Sar][NMeV]; ester I:1-I:C, II:1-II:C; linker I:N-II:N via Actinocin(9to1))
IC (80-90) [1, 8]: 0.0012 µM

CS(=O)(=O)OCCCCOS(C)(=O)=O [Busulfan]
IC (80-90) [1, 5]: 40.6 µM

O=C(O)CCCc1ccc(N(CCCl)CCCl)cc1 [Chlorambucil]
shATM-Chk2-p53 resistance signature [2, 7]: significant resistance | IC (80-90) [1, 6]: 6.6 µM

CC[C@@]1(O)C(=O)OCc2c1cc1n(c2=O)Cc2cc3ccccc3nc2-1 [Camptothecin]
shATM-Chk2-p53 resistance signature [2, 7]: significant resistance | IC (80-90) [1, 6]: 0.0004 µM

COc1cc2c(cc1O)CC[C@@H]1[C@@H]2CC[C@]2(C)[C@@H](O)CC[C@@H]12 [2-Methoxyestradiol]
Concentration used (LD80-90) [1, 4]: 1.8 µM

CC[C@H](C)[C@H](NC(=O)[C@H]([C@@H](C)CC)N(C)C(C)=O)C(=O)N[C@H](C(=O)N[C@@H](CC(C)C)C(=O)[C@@]1(C)CO1)[C@@H](C)O [Epoxomicin]
IC (80-90) [1, 6]: 0.045 µM

NC(=O)NO [Hydroxyurea]
IC (80-90) [1, 5]: 78 µM

CCNC(=O)c1noc(-c2cc(Cl)c(O)cc2O)c1-c1ccc(OC)cc1 [VER-50589]
Concentration used (LD80-90) [1, 4]: 0.16 µM

O=C(CCCCCN1C(=O)c2cccc3cccc(c23)C1=O)NO [Scriptaid]
IC (80-90) [1, 5]: 0.5 µM

CC[C@]1(O)C[C@@H]2CN(CCc3c([nH]c4ccccc34)[C@@](C(=O)OC)(c3cc4c(cc3OC)N(C)[C@H]3[C@@](O)(C(=O)OC)[C@H](OC(C)=O)[C@]5(CC)C=CCN6CC[C@]43[C@@H]65)C2)C1 [Vinblastine]
IC (80-90) [1, 5]: 0.0025 µM

CN(Cc1cnc2nc(N)nc(N)c2n1)c1ccc(C(=O)N[C@@H](CCC(=O)O)C(=O)O)cc1 [Methotrexate]
IC (80-90) [1, 5]: 0.033 µM

O=C1C(=O)N(Cc2ccc(Cl)c(Cl)c2)c2ccccc21 [Apoptosis Activator 2]
Concentration used (LD80-90) [1, 4]: 1.9 µM

Cn1c(CCCC(=O)O)nc2cc(N(CCCl)CCCl)ccc21 [Bendamustine]
IC (80-90) [1, 6]: 110 µM | LD80-90 ([1]; figure legend 2c): 110 µM

O=C1c2c(O)ccc(O)c2C(=O)c2c(NCCNCCO)ccc(NCCNCCO)c21 [Mitoxantrone]
IC (80-90) [1, 5]: 0.0004 µM

COc1cc([C@@H]2c3cc4c(cc3[C@@H](O[C@@H]3O[C@@H]5CO[C@@H](C)O[C@H]5[C@H](O)[C@H]3O)[C@H]3COC(=O)[C@H]23)OCO4)cc(OC)c1O [Etoposide]
IC (80-90) [1, 5]: 0.034 µM

CC(C)C[C@H](NC(=O)[C@H](Cc1ccccc1)NC(=O)c1cnccn1)B(O)O [Bortezomib]
IC (80-90) [1, 5]: 0.013 µM
